Assay results as given in ChEMBL document CHEMBL6127051, “Hydrazinecarboxamides: Comprehensive review of their anticancer, anticonvulsive, anti-inflammatory, enzyme inhibition, antioxidant and other activities” (Eur J Med Chem, 2024).
Values belong to the compound of their own block, whether it stands above or below them.

How the values were obtained:
[1] = Tmax in rat at 2 mg/kg, po by LC-MS/MS analysis; assay type: ADME, organism-based; conditions: in vivo
[2] = Half life in rat at 2 mg/kg, po by LC-MS/MS analysis; assay type: ADME, organism-based; conditions: in vivo
[3] = target: Polyunsaturated fatty acid 5-lipoxygenase (Homo sapiens, UniProt P09917); assay: Inhibition of 5-LOX (unknown origin)
[4] = system: P388; assay: Cytotoxicity against mouse P388 cells assessed as reduction in cell viability; assay type: functional, cell-based
[5] = system: MKN-45; assay: Antiproliferative activity against human MKN-45 cells assessed as inhibition of cell growth by MTT assay; assay type: functional, cell-based
[6] = target: DNA topoisomerase 1 (Homo sapiens, UniProt P11387); assay: Inhibition of DNA topoisomerase I (unknown origin)
[7] = system: HEK293; assay: Antiproliferative activity against HEK293 cells assessed as inhibition of cell growth incubated for 48 hrs by CCK8 assay; assay type: functional, cell-based; conditions: Homo sapiens, HEK293, 48 h
[8] = system: HepG2; assay: Antiproliferative activity against human HepG2 cells assessed as reduction in cell growth incubated for 24 hrs by MTT assay; assay type: functional, cell-based; conditions: HepG2, 24 h
[9] = system: HepG2; assay: Antiproliferative activity against human HepG2 cells assessed as reduction in cell growth incubated for 48 hrs by MTT assay; assay type: functional, cell-based; conditions: HepG2, 48 h
[10] = system: NCI-H1563; assay: Antiproliferative activity against human NCI-H1563 cells assessed as reduction in cell growth incubated for 24 hrs by MTT assay; assay type: functional, cell-based; conditions: NCI-H1563, 24 h
[11] = system: 769-P; assay: Antiproliferative activity against human 769-P cells assessed as reduction in cell growth incubated for 48 hrs by MTT assay; assay type: functional, cell-based
[12] = system: MCF7; assay: Antiproliferative activity against human MCF7 cells assessed as reduction in cell growth incubated for 48 hrs by MTT assay; assay type: functional, cell-based; conditions: MCF7, 48 h
[13] = system: HepG2; assay: Antiproliferative activity against human HepG2 cells assessed as inhibition of cell growth incubated for 48 hrs by MTT assay; assay type: functional, cell-based; conditions: HepG2, 48 h
[14] = Inhibition of Lipoxygenase (unknown origin); set-up: species or system Homo sapiens
[15] = system: MCF7; assay: Antiproliferative activity against human MCF7 cells assessed as reduction in cell viability measured after 48 hrs by MTT assay; assay type: functional, cell-based; conditions: MCF7, 48 h
[16] = Antiplatelet activity in human platelets assessed as inhibition of collagen-induced platelet aggregation at 10 uM relative to control; assay type: functional; set-up: scale not given: the % may be the effect or the level left
[17] = Antiplatelet activity in human platelets assessed as inhibition of collagen-induced platelet aggregation at 20 uM relative to control; assay type: functional; set-up: scale not given: the % may be the effect or the level left
[18] = system: PC-3; assay: Antiproliferative activity against human PC-3 cells assessed as inhibition of cell growth at 10 uM relative to control; assay type: functional; set-up: scale not given: the % may be the effect or the level left; conditions: pooled result: one value given for 4 cell lines, strains, targets or settings
[19] = system: UO-31; assay: Antiproliferative activity against human UO-31 cells assessed as inhibition of cell growth at 10 uM relative to control; assay type: functional; set-up: scale not given: the % may be the effect or the level left
[20] = system: AR-42J cell line; assay: Antiproliferative activity against AR42J cells assessed as reduction in cell viability incubated for 24 hrs by MTT colorimetric assay; assay type: functional, cell-based; conditions: Rattus norvegicus
[21] = Inhibition of alpha amylase (unknown origin); set-up: species or system Homo sapiens
[22] = system: Mus musculus; assay: Anticonvulsant activity in po dosed scPTZ induced Albino mouse seizure model measured after 4 hrs; assay type: functional
[23] = system: Mus musculus; assay: Anticonvulsant activity in ip dosed MES induced mouse model measured after 4 hrs; assay type: functional
[24] = target: Alpha glucosidase (Homo sapiens, UniProt O43451+P10253+P14410+Q2M2H8); assay: Inhibition of Alpha glucosidase (unknown origin); assay type: protein assay
[25] = system: Mus musculus; assay: Anticonvulsant activity in ip dosed MES induced mouse model measured after 2 hrs; assay type: functional
[26] = target: Acetylcholinesterase (Electrophorus electricus, UniProt O42275); assay: Inhibition of electric eel AChE using acetylthiocholine iodide as substrate incubated for 15 mins by Ellman's method
[27] = target: Cholinesterase (Equus caballus, UniProt P81908); assay: Inhibition of equine serum BChE using butyrylthiocholine iodide as substrate measured after 15 mins by Ellman's method
Cholinesterase, sequence (P81908 whole entry): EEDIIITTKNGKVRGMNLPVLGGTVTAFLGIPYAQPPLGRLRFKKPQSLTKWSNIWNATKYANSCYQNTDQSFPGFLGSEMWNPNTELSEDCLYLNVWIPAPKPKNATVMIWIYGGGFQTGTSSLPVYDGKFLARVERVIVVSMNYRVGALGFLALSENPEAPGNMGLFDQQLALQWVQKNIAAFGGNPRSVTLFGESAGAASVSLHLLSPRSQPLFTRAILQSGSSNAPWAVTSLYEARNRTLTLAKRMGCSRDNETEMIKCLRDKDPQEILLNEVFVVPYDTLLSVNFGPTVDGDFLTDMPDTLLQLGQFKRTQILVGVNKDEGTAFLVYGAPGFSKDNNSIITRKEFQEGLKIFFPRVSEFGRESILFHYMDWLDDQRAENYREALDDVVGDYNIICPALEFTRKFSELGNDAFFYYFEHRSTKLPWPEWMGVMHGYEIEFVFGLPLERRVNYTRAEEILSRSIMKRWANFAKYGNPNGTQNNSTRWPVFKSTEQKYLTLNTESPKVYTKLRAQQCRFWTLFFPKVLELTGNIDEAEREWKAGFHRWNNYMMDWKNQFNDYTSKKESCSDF

Acetylcholinesterase, sequence (O42275 whole entry): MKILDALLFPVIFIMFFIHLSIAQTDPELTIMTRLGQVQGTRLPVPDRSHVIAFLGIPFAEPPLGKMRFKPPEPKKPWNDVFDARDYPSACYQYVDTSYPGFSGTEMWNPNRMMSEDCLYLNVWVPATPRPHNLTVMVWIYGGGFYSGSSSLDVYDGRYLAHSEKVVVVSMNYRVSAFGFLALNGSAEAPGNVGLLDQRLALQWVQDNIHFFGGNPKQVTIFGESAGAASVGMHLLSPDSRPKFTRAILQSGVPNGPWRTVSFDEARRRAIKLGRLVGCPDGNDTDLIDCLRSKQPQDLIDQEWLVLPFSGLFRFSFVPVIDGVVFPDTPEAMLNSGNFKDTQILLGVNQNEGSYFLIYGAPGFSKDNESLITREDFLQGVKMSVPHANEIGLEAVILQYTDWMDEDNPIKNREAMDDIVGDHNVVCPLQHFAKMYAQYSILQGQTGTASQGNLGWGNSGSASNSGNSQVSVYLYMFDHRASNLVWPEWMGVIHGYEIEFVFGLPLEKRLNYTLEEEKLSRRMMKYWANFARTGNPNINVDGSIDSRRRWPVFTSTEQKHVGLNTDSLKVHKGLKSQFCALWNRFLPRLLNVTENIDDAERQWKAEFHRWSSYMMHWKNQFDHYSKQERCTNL
DNA topoisomerase 1, sequence (P11387 whole entry): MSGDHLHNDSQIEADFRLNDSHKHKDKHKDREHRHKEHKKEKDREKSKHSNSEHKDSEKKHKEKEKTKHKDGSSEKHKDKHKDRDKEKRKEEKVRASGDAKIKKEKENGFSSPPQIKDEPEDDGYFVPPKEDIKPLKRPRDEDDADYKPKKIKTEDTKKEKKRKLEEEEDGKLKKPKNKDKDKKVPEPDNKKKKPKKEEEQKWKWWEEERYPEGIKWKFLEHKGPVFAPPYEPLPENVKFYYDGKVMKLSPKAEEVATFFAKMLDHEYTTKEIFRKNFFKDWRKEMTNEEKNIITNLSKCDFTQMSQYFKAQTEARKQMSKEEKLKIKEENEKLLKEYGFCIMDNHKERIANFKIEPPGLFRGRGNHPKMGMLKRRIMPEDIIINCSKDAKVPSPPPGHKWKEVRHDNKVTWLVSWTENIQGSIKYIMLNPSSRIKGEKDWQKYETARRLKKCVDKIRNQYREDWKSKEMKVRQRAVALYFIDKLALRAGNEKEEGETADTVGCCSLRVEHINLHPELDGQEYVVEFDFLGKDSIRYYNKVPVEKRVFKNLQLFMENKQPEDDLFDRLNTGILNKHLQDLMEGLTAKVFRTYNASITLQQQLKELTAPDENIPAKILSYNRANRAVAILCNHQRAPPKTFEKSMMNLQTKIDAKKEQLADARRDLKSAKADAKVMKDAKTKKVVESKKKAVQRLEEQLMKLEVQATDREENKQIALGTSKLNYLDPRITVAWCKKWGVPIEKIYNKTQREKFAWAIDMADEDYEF
Polyunsaturated fatty acid 5-lipoxygenase, sequence (P09917 whole entry): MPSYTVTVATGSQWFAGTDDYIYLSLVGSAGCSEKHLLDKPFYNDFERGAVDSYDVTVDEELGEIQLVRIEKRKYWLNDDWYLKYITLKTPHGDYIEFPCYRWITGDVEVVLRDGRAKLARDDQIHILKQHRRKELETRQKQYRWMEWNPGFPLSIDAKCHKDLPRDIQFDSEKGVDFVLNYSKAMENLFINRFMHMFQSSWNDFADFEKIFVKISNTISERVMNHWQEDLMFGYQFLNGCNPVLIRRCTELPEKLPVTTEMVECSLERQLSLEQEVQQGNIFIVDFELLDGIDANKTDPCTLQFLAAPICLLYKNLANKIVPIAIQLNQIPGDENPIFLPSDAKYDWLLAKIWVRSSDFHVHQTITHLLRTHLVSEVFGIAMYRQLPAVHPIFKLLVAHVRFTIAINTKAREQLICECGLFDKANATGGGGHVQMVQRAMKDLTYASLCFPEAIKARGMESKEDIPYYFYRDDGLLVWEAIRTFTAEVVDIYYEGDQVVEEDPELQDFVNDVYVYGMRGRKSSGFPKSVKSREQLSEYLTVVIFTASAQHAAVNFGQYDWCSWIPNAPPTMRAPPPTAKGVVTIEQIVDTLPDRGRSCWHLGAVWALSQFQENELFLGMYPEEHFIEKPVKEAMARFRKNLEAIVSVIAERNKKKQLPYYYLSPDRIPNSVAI

SMILES: CCNC(=O)NNC(=O)c1ccc([N+](=O)[O-])cc1
IC50 [7]: 1500 µM
IC50 [8]: 7.06 µM
IC50 [9]: 1930 µM
IC50 [10]: 336 µM
IC50 [11]: 4780 µM

SMILES: O=C(NNc1ccnc2ccccc12)Nc1ccccc1
Activity [16]: 11.7%
Activity [17]: 10.6%

SMILES: CC(=O)Nc1nc(C)c(C(=O)NNC(=O)Nc2ccccc2)s1
Activity [18]: 14.8%
Activity [19]: 14.8%

SMILES: O=C(CSc1nc2ccccc2n2cnnc12)NNC(=O)NC1CCCCC1
ED50 [22]: 30 mg/kg

SMILES: NNC(=O)Nc1ccccc1Cl
Activity [23]: 66.6%

SMILES: Cc1ccc(NC(=O)NN)cc1
Activity [25]: 100%

SMILES: CCCCCCCCCCCCCNC(=O)NNC(=O)c1ccc(C(F)(F)F)cc1
IC50 [26]: 27 µM
IC50 [27]: 58 µM

More lines, main results first:

Tmax [1]: 1 h
half-life [2]: 3.3 h
IC50 [3]: 5 µM
SMILES: O=C1NCCN(c2ccccc2)N1

IC50 [5]: 0.035 µM
IC50 [6]: 0.25 µM
SMILES: O=C(Nc1ccccc1)NN1C(=O)c2c(c3c4cccc(O)c4n([C@H]4O[C@H](CO)[C@@H](O)[C@H](O)[C@H]4O)c3c3[nH]c4c(O)cccc4c23)C1=O
IC50 [4]: 0.035 µM

IC50 [12]: 10.3 µM
IC50 [13]: 7.73 µM
SMILES: O=C(NNC(=O)C(=O)Nc1ccccc1)Nc1ccccc1

IC50 [14]: 60 µM
SMILES: CC(C(=O)O)c1cccc(Oc2ccccc2)c1 (stereo not drawn) [FENOPROFEN]

IC50 [15]: 0.012 µM
SMILES: COc1cc(/C=C2\SC(=S)N(n3c(=O)[nH]c4ccccc4c3=O)C2=O)ccc1OC(=O)c1ccccc1

IC50 [21]: 64.8 µM
SMILES: O=C(CNc1nc2ccccc2n1C(=O)Nc1ccccc1)NNC(=O)Nc1ccccc1
IC50 [20]: 304 µM

IC50 [24]: 94.33 µM
IC50 [21]: 53 µM
SMILES: Cc1ccc(C[C@@H]2C[C@H]3C(=O)N(C)C4(C[C@H](C)CC[C@H]4C(C)C)N3O2)c(OCC(=O)NNC(=O)Nc2cccc3ccccc23)c1 (stereo partly drawn)
